Experimental findings from patent US10118908B2, “Method for manufacturing furan-2,5-dicarboxylic acid (FDCA) from a solid salt” (PURAC BIOCHEM BV, priority 2015, dated 2018) are described below.

Data set [1] is described as follows: Solubility of FDCA in water as a function of magnesium chloride concentration. The class given is physicochemical. The settings on record: magnesium chloride solutions in water, stirred 24 h at 21.8° C. and 48.8° C., filtrate analysed by HPLC; values only in FIG. 3. As to the method:
Magnesium chloride solutions in water were prepared by dissolving magnesium chloride hexahydrate in water. To each solution (30 g) solid FDCA was added and the mixture was stirred for 24 h at 21.8° C. After stirring a sample was taken and filtered by means of a 0.45 micron filter. The clear filtrate was analysed on FDCA content by means of HPLC. The experiment was repeated at 48.8° C.

Data set [2] can be described thus: Saturation concentration of MgFDC solution. The settings on record: solution at 20° C., as anhydrate. It is filed as physicochemical. On the procedure:
The HCl was added over a period of about 1 hour and the final pH was 1.5. […] The solid FDCA was filtered off and washed with water. The concentration of 4 wt. % was chosen as it is the saturation concentration at 20° C.

For `O=C(O)c1ccc(C(=O)O)o1` [FDCA, furan-2,5-dicarboxylic acid], the “solubility of FDCA” value in data set [1] is “depends strongly on temperature and on the concentration of magnesium chloride”. With `O=C([O-])c1ccc(C(=O)[O-])o1.[Mg+2]` [MgFDC, magnesium furan-2,5-dicarboxylate], the saturation concentration in data set [2] stood at 4 wt. %.
